In patent US20170246129A1, “COMPOSITION USING GUANIDINE COMPOUND FOR SUPPRESSING TRANSFORMING GROWTH FACTOR (TGF)-beta” (Peking University Third Hospital, priority 2016, published 2017):
Where a name gives a salt, the structure may show the parent alone. Read-outs that look alike come from different tables or passages of the source. One block for each compound: values may come before it.

Tests used:
[1] = test system: TGFβ1 induced phosphorylated Smad3 (p-Smad3); test: Western blotting of TGFβ1 induced phosphorylated Smad3 in 3T3 cells; assay type: cell-based, mouse; conditions: compound 1 mmol/L premixed with TGF-β1 (5 ng/mL) for 2 h, 3T3 cells treated 30 min, FIG. 9
Protocol: 2: Moroxydinehydrochloride (dissovled in ddH2O, 1 mmol/L); 3: Phenylbiguanide (dissolved in DMSO, 1 mmoL/L); 4: 1-(2,3-Dichlorophenyl) biguanide hydrochloride (dissolved in DMSO, 1 mmoL/L); 5: 1,3-Di(o-tolyl)guanidine (dissolved in DMSO, 1mmoL/L); 6: Buformin hydrochloride (dissolved in EtOH, 1 mmol/L). These compounds and TGF-β1 (5 ng/mL) were premixed for 2 h separately and then 3T3 cells were treated with the mixture for 30 min prior to sample collection. […] Bicinchoninic acid reagents were used to measure the protein concentration. Equal amounts of proteins were separated by SDS-PAGE and transferred to polyvinylidene difluoride membranes. The blots were immunoreacted with primary antibodies and secondary antibodies conjugated with horseradish peroxidase. […] GAPDH antibodies were purchased from Santa Cruz Biotechnology (Santa Cruz, Calif., USA). Protein bands were visualized by enhanced chemiluminescence detection and the intensity was quantified by use of Image-J software.

[2] = target: T1, [125I]-TGFβ1 binding to its receptor in 3T3 mouse fibroblasts (Homo sapiens, UniProt P01137); test: [125I]-TGFβ1 binding assay; conditions: printed as log[IC50], 50 pM [125I]-TGFβ1, 4 h at 4° C., four independent experiments, read-out: log[IC50] of [125I]-TGFβ1 binding inhibition (converted)
T1 construct: endogenous in cells; host or cells: 3T3 mouse fibroblasts
Protocol: 3T3 mouse fibroblasts were seeded in a 24 well-plate and cultured in DMEM supplemented with 10% FBS and antibiotics (100 U/mL penicillin-streptomycin). […] After 4 h at 4° C., the medium was removed and cells were washed five times with ice-cold binding buffer (50 mM HEPES, 128 mM NaCl, 5 mM KCl, 5 mM MgSO4, and 1.2 mM CaCl2). The cells were then solubilized using binding buffer containing 1% Triton X-100 and the radioactivity was measured. Non-specific binding was determined in the presence of an excess (10 nM) of unlabeled TGFβ1.

TβRII-GFP on HeLa cells = test: Single-molecule fluorescence imaging (TIRFM) of TGF-β1-induced TβRII dimerization; assay type: cell-based; conditions: TGF-β1 10 ng/mL, 15 min at 37° C., FIG. 2D
Protocol: In the previous study, individual green fluorescent protein (GFP)-tagged TβRII molecules were imaged on the cell membrane by total internal reflection fluorescence microscopy (TIRFM) to study the receptor activation.
Single molecule fluorescence imaging was performed with objective-type total internal reflection fluorescence microscopy (TIRFM) using an inverted Olympus IX71 microscope equipped with a total internal reflective fluorescence illuminator'a, 100X/1.45NA Plan Apochromat TIR objective and an intensified CCD (ICCD) camera (Pentamax EEV 512×512 FT, Roper Scientific). Hela cells were transfected with TβRII-GFP plasmid for 4 h, washed, and then imaged in the serum-free and phenol red-free MEM under the fluorescence microscopy. GFP was excited at 488-nm by an argon laser (Melles Griot, Carlsbad, Calif.). Movies of 200-300 frames were acquired for each sample at a frame rate of 10 Hz. […] To analyze single-molecule fluorescence intensity and the photobleaching steps, regions of interest for bleaching analysis were selected as followed. Firstly, the background fluorescence was subtracted from the movie acquired from the fixed cells using rolling ball method in Image J software (National Institutes of Health). […] Finally, time courses and the integrated fluorescence intensity of regions which were selected according to the method above were extracted for photobleaching analysis. […]

TGF-β1/TβRII = target: T2, TGF-β1/TβRII (Homo sapiens, UniProt P01137); test: AFM single-molecule force spectroscopy of TGF-β1-TβRII binding on HeLa cells
T2 construct: expressed in transfected cells; host or cells: HeLa
Protocol: The present invention investigated the binding force and the binding probability between TGF-β1 and TβRII on live cells using AFM-based single-molecule force spectroscopy. TGF-β1-modified AFM tips (type: NP-10, Bruker, Santa Barbara, Calif., USA) were prepared as followed. The spring constants of the tips, calibrated by the thermal fluctuation method, were in the range of 0.025-0.045 N/m. The tips were first cleaned and hydroxized through the treatment with chloroform, HF acid, alkaline solution (NH4OH/H2O2/H2O) 1:1:5, v/v) and piranha solution (98% H2SO4/H2O2) 7:3, v/v), respectively, to generate Si-OH on the wafers. Then they were transferred to a solution of 1.0% (v/v) MPTMS in toluene, incubated for 2 h at room temperature, and rinsed thoroughly with toluene to be modified with —SH groups. […]
Hela cells were transfected with the TβRII-GFP plasmid for 24 h, and the force measurements were performed on a PicoSPM II system with a PicoScan 3000 controller and a large scanner (Agilent, Santa Clara, Calif., USA). The AFM scanner was mounted on an inverted fluorescence microscope (Olympus IX71, Japan). […] All of the force curves were measured with the contact mode at room temperature using a soft cantilever (0.06 N m-1). […] The force curves were recorded using PicoScan 5 software (Molecular Imaging, Tempe, Ariz., USA) and analyzed using a program in MATLAB (MathWorks Corp., Natick, Mass., USA.).

TGF-β1 = TGF-β1 (Homo sapiens, UniProt P01137); test: Surface plasmon resonance (SPR)-based assay; conditions: Biacore T200, 25° C., TGF-β1 on CM5 chip, steady-state single site binding model
Protocol: Experiments were performed at 25° C. using a Biacore T200 and the data were analyzed using Biacore T200 evaluation software 2.0 (GE Healthcare, Stockholm, Sweden). […] The steady-state values were calculated from the sensorgrams and plotted against the concentrations. The data were fit to a single site binding model to calculate the KD.

[3] = persons receiving the drug therapeutically, cited from earlier work

T2 sequence (P01137 279-390 limits assumed): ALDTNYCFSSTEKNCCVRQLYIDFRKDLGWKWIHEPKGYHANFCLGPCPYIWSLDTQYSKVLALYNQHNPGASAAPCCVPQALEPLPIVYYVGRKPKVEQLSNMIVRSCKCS
TGF-β1, sequence (P01137 279-390 limits assumed): as above
T1 sequence (P01137 279-390 limits assumed): as above

SMILES: Cl.N=C(N=C(N)N)N1CCOCC1 [moroxydinehydrochloride]
effect on p-Smad3 induced by TGFβ1 [1]: no effect

SMILES: CCCCNC(=N)NC(=N)N [buformin hydrochloride, Buformin hydrochloride]
effect on p-Smad3 induced by TGFβ1 [1]: attenuate

SMILES: Cl.N=C(NN)NN [1,3-Diaminoguanidine monohydrochloride]
effect on p-Smad3 induced by TGFβ1 [1]: no effect

SMILES: Cc1ccccc1NC(=N)Nc1ccccc1C [1,3-Di(o-tolyl)guanidine]
effect on p-Smad3 induced by TGFβ1 [1]: attenuate

IC50 [2]: 69.2 µM | binding force of TGF-β1 with TβRII (TGF-β1/TβRII; 50 μM, control 49.5±1.3, P>0.05): 49.3±1.4 pN | binding probability of TGF-β1 and TβRII (TGF-β1/TβRII; metformin 50 μM, control 21.7±3.5%): 9.9±1.2% | Kd (TGF-β1): 15.9 µM
SMILES: CN(C)C(=N)N=C(N)N [metformin, metformin hydrochloride]
percentage of TβRII dimers induced by TGF-β1 (TβRII-GFP on HeLa cells): inhibited the percentage of dimers induced by TGF-β1 in a dose-dependent manner | Blood or plasma concentrations [3]: 1 to 4 µg/mL | Blood or plasma concentrations ([3]; conversion of μg/mL): 6 to 24 µM

SMILES: Cl.N=C(N)NC(=N)Nc1cccc(Cl)c1Cl [1-(2,3-Dichlorophenyl) biguanide hydrochloride]
effect on p-Smad3 induced by TGFβ1 [1]: no effect
